US20240140931A1, “TRICYCLIC COMPOUNDS AND USES THEREOF” (HUTCHMED LIMITED, priority 2021, published 2024)

Assays:
[1] = tested on: pERK1/2 (Thr202/Tyr204) in Miapaca2 cells; assay: Assay of intracellular pERK1/2 (Thr202/Tyr204) phosphorylation; format: cell-based; conditions: pERK1/2 (Thr202/Tyr204) HTRF
How it was run: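 Miapaca2 cells treated 2 h at 37 °C with compound (3-fold series; final DMSO 0.5%), then lysed 1 h. pERK1/2 (Thr202/Tyr204) detected by HTRF (665/615 nm ratio) after 2 h at 25 °C; normalized to cell-free lysis buffer and DMSO-treated cell controls; IC50 by four-parameter fit.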

[2] = target: Human full-length SHP2 recombinant protein (Homo sapiens (Human), UniProt Q06124); assay: Assay of full-length SHP2 phosphatase activity; format: biochemical; conditions: DiFMUP substrate, with activating peptide
How it was run: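 Full-length human SHP2 preincubated 30 min at RT with activating peptide and compound (1% DMSO final). DiFMUP substrate added, reaction 60 min at 25 °C in dark. Fluorescence at ex 355/em 460 nm; IC50 from 4-parameter fit against enzyme-free and vehicle controls.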

Miapaca2 3D spheroids = assay: Assay of cell proliferation on Miapaca2 3D spheroids; format: cell-based; conditions: CellTiter-Glo 3D, 5 days treatment
How it was run: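 Miapaca2 spheroids (300 cells/well, formed by day 2) exposed 5 days at 37 °C to compound in 3-fold dilution series, 0.1% DMSO final. Viability by CellTiter-Glo 3D luminescence; survival % relative to day-2 and day-7 DMSO controls, IC50 from four-parameter logistic fit.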

[3] = Homo sapiens, MIA PaCa-2, 120 h

Sequence of Human full-length SHP2 recombinant protein (Q06124 whole entry): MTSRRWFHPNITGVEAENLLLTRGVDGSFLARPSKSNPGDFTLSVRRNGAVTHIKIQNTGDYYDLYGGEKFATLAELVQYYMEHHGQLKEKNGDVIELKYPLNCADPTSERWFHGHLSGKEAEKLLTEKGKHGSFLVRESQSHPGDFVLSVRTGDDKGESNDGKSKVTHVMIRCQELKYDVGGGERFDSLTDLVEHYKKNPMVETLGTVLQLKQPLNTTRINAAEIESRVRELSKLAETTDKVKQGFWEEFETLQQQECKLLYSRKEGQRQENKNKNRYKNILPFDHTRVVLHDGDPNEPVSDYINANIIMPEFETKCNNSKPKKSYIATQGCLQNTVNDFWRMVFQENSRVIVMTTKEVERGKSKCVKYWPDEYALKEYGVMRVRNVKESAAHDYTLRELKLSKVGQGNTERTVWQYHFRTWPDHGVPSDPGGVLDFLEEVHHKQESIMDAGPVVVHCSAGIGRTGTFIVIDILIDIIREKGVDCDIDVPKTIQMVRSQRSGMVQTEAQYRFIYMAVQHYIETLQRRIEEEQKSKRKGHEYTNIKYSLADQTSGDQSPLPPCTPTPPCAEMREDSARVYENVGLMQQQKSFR

SMILES: COCC#Cc1cc(F)c2c(c1)[C@@H](N)C1(CCN(c3cc(=O)n(-c4cccc(Cl)c4Cl)c(C)n3)CC1)C2 [Compound 166]
- IC50 ([1]; Homo sapiens, MIA PaCa-2, 2 h): 38 nM
- IC50 [2]: 6 nM
- IC50 (Miapaca2 3D spheroids; [3]): 110 nM

SMILES: COCC#Cc1cc(F)c2c(c1)[C@@H](N)C1(CCN(c3nc(C)n(-c4cccc(Cl)c4Cl)c(=O)c3C)CC1)C2 [Compound 160]
- IC50 ([1]; Homo sapiens, MIA PaCa-2, 2 h): 56 nM
- IC50 [2]: 13 nM
- IC50 (Miapaca2 3D spheroids; [3]): 41 nM

SMILES: CNC(=O)C#Cc1ccc2c(c1)[C@@H](N)C1(CCN(c3cnc(Sc4cccnc4Cl)c(N)n3)CC1)C2 [Compound 248]
- IC50 ([1]; Homo sapiens, MIA PaCa-2, 2 h): 2 nM
- IC50 [2]: < 0.5 nM
- IC50 (Miapaca2 3D spheroids; [3]): 0.4 nM

SMILES: COCC#Cc1cc(F)c2c(c1)[C@@H](N)C1(CCN(c3ncc(Sc4ccnc(C)n4)c4nccn34)CC1)C2 [Compound 175]
- IC50 ([1]; Homo sapiens, MIA PaCa-2, 2 h): 122 nM
- IC50 [2]: 14 nM
- IC50 (Miapaca2 3D spheroids; [3]): 100 nM

SMILES: C#Cc1ccc2c(c1)[C@@H](N)C1(CCN(c3cc(=O)n(-c4ccc(C#N)c(OC)c4Cl)c(C)n3)CC1)C2 (atropisomer, axis not shown) [Compound 191]
- IC50 ([1]; 2 hours): 21 nM
- IC50 [2]: 1 nM
- IC50 (Miapaca2 3D spheroids): 58 nM

SMILES: COCCN(C)C(=O)C#Cc1ccc2c(c1)[C@@H](N)C1(CCN(c3cnc(Sc4ccnc(N)c4Cl)cn3)CC1)C2 [Compound 301]
- IC50 ([1]; Homo sapiens, MIA PaCa-2, 2 h): 5 nM
- IC50 [2]: 0.4 nM
- IC50 (Miapaca2 3D spheroids; [3]): 1 nM

SMILES: CNC(=O)C#Cc1ccc2c(c1)[C@@H](N)C1(CCN(c3ncc(Sc4ccnc(N)c4Cl)n4nccc34)CC1)C2 [Compound 177]
- IC50 ([1]; Homo sapiens, MIA PaCa-2, 2 h): 7 nM
- IC50 [2]: 2 nM
- IC50 (Miapaca2 3D spheroids; [3]): 4 nM

SMILES: COCC#Cc1ccc2c(c1)[C@@H](N)C1(CCN(c3ncc(Sc4ccnc(N)c4Cl)c4ncnn34)CC1)C2 [Compound 148]
- IC50 ([1]; Homo sapiens, MIA PaCa-2, 2 h): 13 nM
- IC50 [2]: 4 nM
- IC50 (Miapaca2 3D spheroids; [3]): 47 nM

SMILES: Nc1nccc(Sc2cnc(N3CCC4(CC3)Cc3ccc(C#CC(=O)O)cc3[C@H]4N)cn2)c1Cl [Compound 279, (S)-3-(1-amino-1′-(5-((2-amino-3-chloropyridin-4-yl)thio)pyrazin-2-yl)-1,3-dihydrospiro[indene-2,4′-piperidin]-6-yl)propiolic acid]
- IC50 ([1]; Homo sapiens, MIA PaCa-2, 2 h): 183 nM
- IC50 [2]: 0.4 nM
- IC50 (Miapaca2 3D spheroids; [3]): 42 nM

SMILES: Cc1c(N2CCC3(CC2)Cc2ccc(C#CC(=O)N(C)C)cc2[C@H]3N)nc(C)n(-c2cccc(Cl)c2Cl)c1=O [Compound 195]
- IC50 ([1]; Homo sapiens, MIA PaCa-2, 2 h): 11 nM
- IC50 [2]: 1 nM
- IC50 (Miapaca2 3D spheroids; [3]): 30 nM

SMILES: C#Cc1ccc2c(c1)[C@@H](N)C1(CCN(c3ncc(Sc4ccnc(N)c4Cl)c(=O)n3C)CC1)C2 [Compound 299, (S)-5-((2-amino-3-chloropyridin-4-yl)thio)-2-(1-amino-6-ethynyl-1,3-dihydrospiro[indene-2,4′-piperidin]-1′-yl)-3-methylpyrimidin-4(3H)-one]
- IC50 ([1]; Homo sapiens, MIA PaCa-2, 2 h): 2 nM
- IC50 [2]: 1 nM
- IC50 (Miapaca2 3D spheroids; [3]): 1 nM

SMILES: CNC(=O)C#Cc1ccc2c(c1)[C@@H](N)C1(CCN(c3ncc(Sc4ccnc(N)c4Cl)nc3C)CC1)O2 [Compound 266]
- IC50 ([1]; Homo sapiens, MIA PaCa-2, 2 h): 26 nM
- IC50 [2]: 5 nM
- IC50 (Miapaca2 3D spheroids; [3]): 10 nM

SMILES: Cc1nc(N2CCC3(CC2)Cc2ccc(C#CC(=O)N(C)C)cc2[C@H]3N)cc(=O)n1-c1cccc(Cl)c1Cl [Compound 194]
- IC50 ([1]; Homo sapiens, MIA PaCa-2, 2 h): 18 nM
- IC50 [2]: 1 nM
- IC50 (Miapaca2 3D spheroids; [3]): 36 nM

SMILES: NC(=O)C#Cc1ccc2c(c1)[C@@H](N)C1(CCN(c3cnc(Sc4ccnc(N)c4Cl)cn3)CC1)C2 [Compound 270]
- IC50 ([1]; Homo sapiens, MIA PaCa-2, 2 h): 2 nM
- IC50 [2]: 0.4 nM
- IC50 (Miapaca2 3D spheroids; [3]): 0.6 nM

SMILES: CNC(=O)C#Cc1ccc2c(c1)[C@@H](N)C1(CCN(c3cnc(Sc4cc(N)nc(Cl)c4Cl)c(N)n3)CC1)C2 [Compound 253]
- IC50 ([1]; Homo sapiens, MIA PaCa-2, 2 h): 10 nM
- IC50 [2]: 1 nM
- IC50 (Miapaca2 3D spheroids; [3]): 2 nM

SMILES: C#Cc1ccc2c(c1)[C@@H](N)C1(CCN(c3cc(=O)n(-c4ccc(C#N)c(OC)c4Cl)c(C)n3)CC1)C2 [Compound 183]
- IC50 ([1]; 2 hours): 50 nM
- IC50 [2]: 2 nM
- IC50 (Miapaca2 3D spheroids; [3]): 68 nM

SMILES: CCNC(=O)C#Cc1ccc2c(c1)[C@@H](N)C1(CCN(c3cnc(Sc4ccnc(N)c4Cl)c(N)n3)CC1)C2 [Compound 226]
- IC50 ([1]; Homo sapiens, MIA PaCa-2, 2 h): 2 nM
- IC50 [2]: 1 nM
- IC50 (Miapaca2 3D spheroids; [3]): 0.4 nM

SMILES: CNC(=O)C#Cc1ccc2c(c1)[C@@H](N)C1(CCN(c3cnc(Sc4cccnc4C(F)(F)F)c(N)n3)CC1)C2 [Compound 236]
- IC50 ([1]; Homo sapiens, MIA PaCa-2, 2 h): 3 nM
- IC50 [2]: 1.3 nM
- IC50 (Miapaca2 3D spheroids; [3]): 1 nM

SMILES: Cc1nc(Sc2ccnc(N)c2Cl)c(N)nc1N1CCC2(CC1)Cc1ccc(C#CC(=O)O)cc1[C@H]2N [Compound 283]
- IC50 ([1]; Homo sapiens, MIA PaCa-2, 2 h): 737 nM
- IC50 [2]: 1 nM
- IC50 (Miapaca2 3D spheroids; [3]): 243 nM

SMILES: CC#Cc1ccc2c(c1)[C@@H](N)C1(CCN(c3cc(=O)n(-c4ccc(F)c(Cl)c4Cl)c(C)n3)CC1)C2 (atropisomer, axis not shown) [Compound 221]
- IC50 ([1]; 2 hours): 15 nM
- IC50 [2]: 1 nM
- IC50 (Miapaca2 3D spheroids; [3]): 63 nM

SMILES: C#Cc1ccc2c(c1)[C@@H](N)C1(CCN(c3cc(=O)n(-c4ccc(F)c(OC)c4Cl)c(C)n3)CC1)C2 [Compound 157]
- IC50 ([1]; 2 hours): 25 nM
- IC50 [2]: 2 nM
- IC50 (Miapaca2 3D spheroids): 28 nM

SMILES: CNC(=O)C#Cc1ccc2c(c1)[C@@H](N)C1(CCN(c3ncc(Sc4ccnc(N)c4Cl)c4nccn34)CC1)C2 [Compound 172]
- IC50 ([1]; Homo sapiens, MIA PaCa-2, 2 h): 8 nM
- IC50 [2]: 1 nM
- IC50 (Miapaca2 3D spheroids; [3]): 9 nM

SMILES: C#Cc1cc(F)c2c(c1)[C@@H](N)C1(CCN(c3cc(=O)n(-c4cccc(Cl)c4Cl)c(C)n3)CC1)C2 [Compound 135]
- IC50 ([1]; Homo sapiens, MIA PaCa-2, 2 h): 56 nM
- IC50 [2]: 5 nM
- IC50 (Miapaca2 3D spheroids; [3]): 95 nM

SMILES: Cc1nc(N2CCC3(CC2)Cc2ccc(C#CC(N)=O)cc2[C@H]3N)cnc1Sc1ccnc(N)c1Cl [Compound 277]
- IC50 ([1]; Homo sapiens, MIA PaCa-2, 2 h): 11 nM
- IC50 [2]: 1 nM
- IC50 (Miapaca2 3D spheroids; [3]): 5 nM

SMILES: C#Cc1ccc2c(c1)[C@@H](N)C1(CCN(c3nc(N)c(-c4cn(C)c5ncccc45)c(=O)n3C)CC1)C2 [Compound 284]
- IC50 ([1]; Homo sapiens, MIA PaCa-2, 2 h): 5 nM
- IC50 [2]: 2 nM
- IC50 (Miapaca2 3D spheroids; [3]): 4 nM

SMILES: CNC(=O)C#Cc1ccc2c(c1)[C@@H](N)C1(CCN(c3nc(N)c(Sc4ccnc(N)c4Cl)nc3Br)CC1)C2 [Compound 240, (S)-3-(1-amino-1′-(6-amino-5-((2-amino-3-chloropyridin-4-yl)thio)-3-bromopyrazin-2-yl)-1,3-dihydrospiro[indene-2,4′-piperidin]-6-yl)-N-methylpropiolamide]
- IC50 ([1]; Homo sapiens, MIA PaCa-2, 2 h): 18 nM
- IC50 [2]: 1.5 nM
- IC50 (Miapaca2 3D spheroids; [3]): 5 nM
